From article PMC8115619, “Generation of a chemical genetic model for JAK3” (Scientific Reports, 2021)
Read-outs that look alike come from different tables or passages of the source.

Tests used:
[1] = system: IL-4 induced STAT6 phosphorylation in BMDMs from JAK3 Cys905Ser knockin mice; assay: IL-4 induced STAT6 phosphorylation in JAK3 Cys905Ser knockin BMDMs (immunoblot); type: cell-based, mouse; details: for IC50: Mus musculus, BMDM, 0.5 h, 10 ng/ml IL-4 30 min, pSTAT6 Tyr641 immunoblot, two independent experiments
Description: (§1) Figure 3 Effect of JAK3 inhibitors on IL-4 induced STAT6 phosphorylation. BMDMs were isolated from wild type and JAK3 Cys905Ser knockin mice. Cells were incubated with the indicated concentrations of inhibitor before stimulation for 30 min with 10 ng/ml IL-4. Cells were lysed and the levels of STAT6 phosphorylated at Tyr641 were assessed by immunoblotting. Levels of ERK1/2 were determined as a loading control.
(§2) Bone marrow derived macrophages (BMDMs) were cultured as described. Briefly, bone marrow was flushed in PBS from the femurs and tibias of mice. Cells were cultured on bacterial grade plastic for 7 days at 37 °C, 5% CO2. Cells were then detached using Versene (Gibco), re-plated on tissue culture plastic in BMDM media (in DMEM supplemented with 10% heat inactivated FBS (Labtech), 2 mM L-glutamine, 100 U/ml penicillin G, 100 μg/ml streptomycin and 0.25 μg/ml amphotericin, 5 ng/ml M-CSF) and used within 48 h. Where indicated cells were stimulated with 10 ng/ml IL-4, 10 ng/ml GM-CSF, 10 ng/ml IL-10 or 10 ng/ml IFNβ. All cytokines were from PeproTech.
(§3) Cells were lysed directly into SDS sample buffer and aliquots run on 10% polyacrylamide gels using standard methods. Proteins were transferred onto nitrocellulose membranes, and specific proteins were detected by immunoblotting. Antibodies against tyrosine phosphorylated STATs were from Cell Signaling Technology (phospho-STAT1 #9167, phospho-STAT3 #9131, phospho-STAT5 #4322 and phospho-STAT6 #9361). The total ERK1/2 antibody used as a loading control was also from cell Signaling Technology (#4695). HRP-conjugated secondary antibodies were obtained from Pierce. Bands were detected using Clarity ECL reagents from BioRad and imaged on a Licor Odyssey Fc system. Quantification was carried out using Licor Image Studio software. After correction for the ERK1/2 levels to account for loading differences, percentage inhibition was calculated relative to the IL-4 stimulated condition. IC50 values were calculated using the same methods as for the in vitro IC50 values.

[2] = system: TYK2; details: read-out: In vitro IC50 TYK2, cited from earlier work
[3] = system: IL-4 induced STAT6 phosphorylation in wild type BMDMs; assay: IL-4 induced STAT6 phosphorylation in wild type BMDMs (immunoblot); type: cell-based; details: Mus musculus, BMDM, 0.5 h; 10 ng/ml IL-4 30 min, pSTAT6 Tyr641 immunoblot, two independent experiments
Description: as §1, §2, §3

[4] = biological target: IKKb (Homo sapiens, UniProt O14920); assay: Selectivity screen IKKb; type: biochemical; details: 1 µM inhibitor, mean
Description: (§4) For the in vitro kinase assay, JAK3 (5–20 mU diluted in 50 mM Tris pH 7.5, 0.1 mM EGTA, 0.05% β-mercaptoethanol, 1 mg/ml BSA) was assayed against PDKtide ([…]) in a final volume of 25.5 µl containing 50 mM Tris pH 7.5, 0.1 mM EGTA, 0.05% β-mercaptoethanol, 100 µM substrate peptide, 10 mM magnesium acetate and 0.02 mM [33P-γ-ATP] (50–1000 cpm/pmole) and incubated for 30 min at room temperature. Assays were started by the addition of the ATP and stopped by addition of 5 µl of 0.5 M (3%) orthophosphoric acid and then harvested onto P81 Unifilter plates with a wash buffer of 50 mM orthophosphoric acid. To determine the Km for ATP, assays were run using 1, 5, 10, 20, 50, 100, 200, 400, 500 μM ATP and Km derived by non-linear regression fitting to the Michaelis–Menten equation v = Vmax[S]/(Km + [S]). IC50 values for inhibitors via non-linear regression using a parameter model: Y = Bottom + (Top–Bottom)/(1 + (IC50/X)^HillSlope). Non-linear regression was carried out in Prism (version 8). In vitro selectivity screen was carried out as described previously.

[5] = biological target: PKCa (Homo sapiens, UniProt P17252); assay: Selectivity screen PKCa; type: biochemical; details: 1 µM inhibitor, mean
Description: as §4

[6] = biological target: RSK1 (Homo sapiens, UniProt Q15418); assay: Selectivity screen RSK1; type: biochemical; details: 1 µM inhibitor, mean
Description: as §4

[7] = biological target: PKD1 (Homo sapiens, UniProt Q15139); assay: Selectivity screen PKD1; type: biochemical; details: 1 µM inhibitor, mean
Description: as §4

[8] = biological target: MARK2 (Homo sapiens, UniProt Q7KZI7); assay: Selectivity screen MARK2; type: biochemical; details: 1 µM inhibitor, mean
Sequence of MARK2 (Q7KZI7 whole entry): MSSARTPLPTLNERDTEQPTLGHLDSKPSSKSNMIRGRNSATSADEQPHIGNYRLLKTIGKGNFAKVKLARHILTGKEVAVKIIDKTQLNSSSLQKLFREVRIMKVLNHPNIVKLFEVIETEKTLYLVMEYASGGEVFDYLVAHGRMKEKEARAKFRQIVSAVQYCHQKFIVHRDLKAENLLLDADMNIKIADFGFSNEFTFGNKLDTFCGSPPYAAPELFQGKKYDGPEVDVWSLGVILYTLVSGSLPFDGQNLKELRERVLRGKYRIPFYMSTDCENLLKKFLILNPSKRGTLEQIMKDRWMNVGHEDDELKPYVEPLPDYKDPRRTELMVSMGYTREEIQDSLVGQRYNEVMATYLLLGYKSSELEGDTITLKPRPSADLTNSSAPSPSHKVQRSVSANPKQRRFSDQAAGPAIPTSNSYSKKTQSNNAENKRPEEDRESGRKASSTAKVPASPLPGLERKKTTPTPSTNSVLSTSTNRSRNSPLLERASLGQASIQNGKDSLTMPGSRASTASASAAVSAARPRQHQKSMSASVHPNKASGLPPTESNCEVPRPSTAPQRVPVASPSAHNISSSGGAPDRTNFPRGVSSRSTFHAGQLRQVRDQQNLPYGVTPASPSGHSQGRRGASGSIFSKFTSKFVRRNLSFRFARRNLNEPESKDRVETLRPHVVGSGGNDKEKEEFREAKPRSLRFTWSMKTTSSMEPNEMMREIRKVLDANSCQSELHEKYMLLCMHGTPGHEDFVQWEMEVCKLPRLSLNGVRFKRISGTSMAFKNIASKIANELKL
Description: as §4

[9] = biological target: ABL (Homo sapiens, UniProt P00519); assay: Selectivity screen ABL; type: biochemical; details: 1 µM inhibitor, mean
Sequence of ABL (P00519 whole entry): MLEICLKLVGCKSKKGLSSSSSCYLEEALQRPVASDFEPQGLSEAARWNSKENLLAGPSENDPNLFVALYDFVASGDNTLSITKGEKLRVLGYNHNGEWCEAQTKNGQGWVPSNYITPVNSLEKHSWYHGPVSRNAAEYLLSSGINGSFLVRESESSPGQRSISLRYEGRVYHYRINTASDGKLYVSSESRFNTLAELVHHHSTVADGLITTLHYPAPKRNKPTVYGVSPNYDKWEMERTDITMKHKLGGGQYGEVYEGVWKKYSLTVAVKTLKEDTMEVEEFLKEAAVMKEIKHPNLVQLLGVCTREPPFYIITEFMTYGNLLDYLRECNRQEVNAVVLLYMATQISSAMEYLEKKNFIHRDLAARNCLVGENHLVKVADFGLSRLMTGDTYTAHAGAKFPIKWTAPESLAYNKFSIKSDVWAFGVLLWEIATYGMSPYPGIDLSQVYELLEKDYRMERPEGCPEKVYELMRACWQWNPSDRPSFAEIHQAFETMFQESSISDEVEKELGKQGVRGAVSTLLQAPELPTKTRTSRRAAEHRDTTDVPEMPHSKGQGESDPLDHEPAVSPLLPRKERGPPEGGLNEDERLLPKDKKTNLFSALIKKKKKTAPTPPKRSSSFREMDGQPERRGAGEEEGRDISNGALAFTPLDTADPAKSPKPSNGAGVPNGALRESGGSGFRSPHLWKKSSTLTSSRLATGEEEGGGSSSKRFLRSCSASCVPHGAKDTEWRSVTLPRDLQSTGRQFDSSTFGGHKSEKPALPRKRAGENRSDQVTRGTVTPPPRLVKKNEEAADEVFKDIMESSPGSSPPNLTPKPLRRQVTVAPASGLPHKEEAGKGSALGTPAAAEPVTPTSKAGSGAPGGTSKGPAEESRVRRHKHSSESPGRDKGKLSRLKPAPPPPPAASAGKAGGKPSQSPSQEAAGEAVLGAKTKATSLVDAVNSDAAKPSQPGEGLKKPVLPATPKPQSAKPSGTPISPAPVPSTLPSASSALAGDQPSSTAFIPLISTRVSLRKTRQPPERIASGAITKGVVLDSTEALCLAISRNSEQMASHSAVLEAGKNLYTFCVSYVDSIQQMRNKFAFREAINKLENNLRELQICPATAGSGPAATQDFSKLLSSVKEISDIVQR
Description: as §4

[10] = biological target: CHK2 (Homo sapiens, UniProt O96017); assay: Selectivity screen CHK2; type: biochemical; details: 1 µM inhibitor, mean
Sequence of CHK2 (O96017 whole entry): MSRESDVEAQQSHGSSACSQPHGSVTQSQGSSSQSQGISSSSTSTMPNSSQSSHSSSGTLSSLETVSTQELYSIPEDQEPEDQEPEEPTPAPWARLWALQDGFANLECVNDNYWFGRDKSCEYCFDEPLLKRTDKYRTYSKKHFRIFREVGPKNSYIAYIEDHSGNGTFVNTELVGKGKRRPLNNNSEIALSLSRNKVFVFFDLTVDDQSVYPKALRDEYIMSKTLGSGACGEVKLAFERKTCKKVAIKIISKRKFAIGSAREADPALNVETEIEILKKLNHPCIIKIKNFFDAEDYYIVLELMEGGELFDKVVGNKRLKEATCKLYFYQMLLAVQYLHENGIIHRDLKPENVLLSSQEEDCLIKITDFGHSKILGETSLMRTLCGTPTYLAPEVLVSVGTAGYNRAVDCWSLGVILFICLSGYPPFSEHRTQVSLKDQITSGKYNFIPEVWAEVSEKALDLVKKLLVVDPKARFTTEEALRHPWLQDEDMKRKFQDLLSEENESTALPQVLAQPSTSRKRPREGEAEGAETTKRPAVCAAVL
Description: as §4

[11] = biological target: MARK3 (Homo sapiens, UniProt P27448); assay: Selectivity screen MARK3; type: biochemical; details: 1 µM inhibitor, mean
Description: as §4

[12] = biological target: DYRK2 (Homo sapiens, UniProt Q92630); assay: Selectivity screen DYRK2; type: biochemical; details: 1 µM inhibitor, mean
Sequence of DYRK2 (Q92630 whole entry): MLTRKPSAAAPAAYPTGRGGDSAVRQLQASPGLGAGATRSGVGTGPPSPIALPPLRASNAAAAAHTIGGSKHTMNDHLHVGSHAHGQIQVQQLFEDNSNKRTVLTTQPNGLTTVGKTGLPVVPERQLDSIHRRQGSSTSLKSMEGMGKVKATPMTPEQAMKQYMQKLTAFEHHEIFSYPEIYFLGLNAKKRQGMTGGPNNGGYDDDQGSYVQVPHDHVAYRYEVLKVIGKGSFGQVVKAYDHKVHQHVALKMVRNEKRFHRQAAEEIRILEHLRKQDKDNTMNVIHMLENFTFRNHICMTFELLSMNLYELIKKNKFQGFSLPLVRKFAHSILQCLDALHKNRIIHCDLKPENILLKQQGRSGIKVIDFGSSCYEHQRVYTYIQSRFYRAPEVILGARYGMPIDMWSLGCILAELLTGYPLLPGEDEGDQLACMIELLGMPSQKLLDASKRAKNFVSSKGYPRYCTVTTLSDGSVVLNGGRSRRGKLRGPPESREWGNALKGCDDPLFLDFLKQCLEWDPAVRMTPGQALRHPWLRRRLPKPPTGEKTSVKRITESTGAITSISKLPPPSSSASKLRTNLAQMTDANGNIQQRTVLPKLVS
Description: as §4

[13] = biological target: PAK6 (Homo sapiens, UniProt Q9NQU5); assay: Selectivity screen PAK6; type: biochemical; details: 1 µM inhibitor, mean
Description: as §4

[14] = biological target: CK2 (Homo sapiens, UniProt P68400); assay: Selectivity screen CK2; type: biochemical; details: 1 µM inhibitor, mean
Description: as §4

[15] = biological target: ULK1 (Homo sapiens, UniProt O75385); assay: Selectivity screen ULK1; type: biochemical; details: 1 µM inhibitor, mean
Description: as §4

[16] = biological target: ZAP70 (Homo sapiens, UniProt P43403); assay: Selectivity screen ZAP70; type: biochemical; details: 1 µM inhibitor, mean
Description: as §4

[17] = biological target: PIM2 (Homo sapiens, UniProt Q9P1W9); assay: Selectivity screen PIM2; type: biochemical; details: 1 µM inhibitor, mean
Description: as §4

[18] = biological target: SRPK1 (Homo sapiens, UniProt Q96SB4); assay: Selectivity screen SRPK1; type: biochemical; details: 1 µM inhibitor, mean
Sequence of SRPK1 (Q96SB4 whole entry): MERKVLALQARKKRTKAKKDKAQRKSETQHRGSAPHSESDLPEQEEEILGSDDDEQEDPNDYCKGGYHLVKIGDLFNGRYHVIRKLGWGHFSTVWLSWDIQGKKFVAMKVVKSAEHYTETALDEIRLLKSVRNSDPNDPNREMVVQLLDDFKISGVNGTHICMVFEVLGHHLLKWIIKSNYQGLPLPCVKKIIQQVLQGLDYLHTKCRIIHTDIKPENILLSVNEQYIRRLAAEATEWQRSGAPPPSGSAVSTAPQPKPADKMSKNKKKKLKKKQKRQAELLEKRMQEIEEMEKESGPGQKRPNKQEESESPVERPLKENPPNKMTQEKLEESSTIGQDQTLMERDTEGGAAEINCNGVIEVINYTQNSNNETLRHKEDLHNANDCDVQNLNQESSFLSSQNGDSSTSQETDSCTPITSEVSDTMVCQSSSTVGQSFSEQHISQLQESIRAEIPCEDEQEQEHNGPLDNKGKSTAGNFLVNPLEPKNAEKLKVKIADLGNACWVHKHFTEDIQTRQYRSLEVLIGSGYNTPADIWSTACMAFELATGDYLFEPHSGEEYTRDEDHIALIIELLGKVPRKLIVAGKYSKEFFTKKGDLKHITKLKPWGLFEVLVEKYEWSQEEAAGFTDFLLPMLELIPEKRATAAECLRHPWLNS
Description: as §4

[19] = biological target: IRR (Homo sapiens, UniProt P14616); assay: Selectivity screen IRR; type: biochemical; details: 1 µM inhibitor, mean
Description: as §4

[20] = biological target: p38a MAPK (Homo sapiens, UniProt Q16539); assay: Selectivity screen p38a MAPK; type: biochemical; details: 1 µM inhibitor, mean
Description: as §4

[21] = biological target: PINK (Tribolium castaneum, UniProt D6WMX4); assay: Selectivity screen PINK; type: biochemical; details: 1 µM inhibitor, mean
Description: as §4

[22] = biological target: MAP4K3 (Homo sapiens, UniProt Q8IVH8); assay: Selectivity screen MAP4K3; type: biochemical; details: 1 µM inhibitor, mean
Description: as §4

[23] = biological target: CDK2-Cyclin A (Homo sapiens, UniProt P24941); assay: Selectivity screen CDK2-Cyclin A; type: biochemical; details: 1 µM inhibitor, mean
[24] = biological target: CDK9-Cyclin T1 (Homo sapiens, UniProt P50750); assay: Selectivity screen CDK9-Cyclin T1; type: biochemical; details: 1 µM inhibitor, mean
Sequence of CDK9-Cyclin T1 (P50750 whole entry): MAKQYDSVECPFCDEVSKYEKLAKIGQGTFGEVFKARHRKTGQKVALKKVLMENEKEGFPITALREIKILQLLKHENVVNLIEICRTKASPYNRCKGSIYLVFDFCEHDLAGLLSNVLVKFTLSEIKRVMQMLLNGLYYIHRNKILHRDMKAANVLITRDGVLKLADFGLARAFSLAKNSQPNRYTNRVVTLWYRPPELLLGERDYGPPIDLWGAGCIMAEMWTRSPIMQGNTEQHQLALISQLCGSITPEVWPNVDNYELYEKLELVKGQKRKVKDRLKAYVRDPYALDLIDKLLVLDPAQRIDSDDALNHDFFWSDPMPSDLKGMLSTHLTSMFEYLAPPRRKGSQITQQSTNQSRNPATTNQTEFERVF
Sequence of CDK9-Cyclin T1 (O60563 whole entry partner): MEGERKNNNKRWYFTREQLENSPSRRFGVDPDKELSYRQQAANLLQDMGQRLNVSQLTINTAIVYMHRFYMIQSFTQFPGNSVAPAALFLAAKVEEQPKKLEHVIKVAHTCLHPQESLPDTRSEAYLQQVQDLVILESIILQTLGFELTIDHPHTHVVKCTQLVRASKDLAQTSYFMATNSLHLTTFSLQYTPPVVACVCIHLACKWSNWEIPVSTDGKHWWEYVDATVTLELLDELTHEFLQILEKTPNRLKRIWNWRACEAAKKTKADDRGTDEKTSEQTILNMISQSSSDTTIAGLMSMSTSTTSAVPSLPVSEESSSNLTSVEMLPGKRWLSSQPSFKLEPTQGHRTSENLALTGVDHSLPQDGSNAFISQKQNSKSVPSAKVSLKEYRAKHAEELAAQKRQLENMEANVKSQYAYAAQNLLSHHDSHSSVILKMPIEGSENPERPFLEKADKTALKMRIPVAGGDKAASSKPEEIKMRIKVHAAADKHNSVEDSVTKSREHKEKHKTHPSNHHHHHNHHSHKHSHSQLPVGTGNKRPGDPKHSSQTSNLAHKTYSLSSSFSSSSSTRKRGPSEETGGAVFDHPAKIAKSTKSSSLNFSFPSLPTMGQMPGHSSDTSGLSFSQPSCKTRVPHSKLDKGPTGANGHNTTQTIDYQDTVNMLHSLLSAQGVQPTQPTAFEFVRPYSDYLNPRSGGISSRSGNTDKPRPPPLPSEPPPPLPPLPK
Description: as §4

In the case of `C=CC(=O)N1C[C@H](Nc2ncnc3[nH]ccc23)CC[C@@H]1C` [PF-06651600, 1-((2S,5R)-5-((7H-Pyrrolo[2,3-d]pyrimidin-4-yl)amino)-2-methylpiperidin-1-yl)prop-2-en-1-one, reference compound], the IC50 [1] is given as greater than 10000 nM, the IC50 ([2]; ATP 12 μM) is given as greater than 10000 nM and the IC50 [3] is given as 560 nM.
For `C=CC(=O)Nc1cccc(CNc2nc(Nc3ccc(N4CCN(C)CC4)cc3OC)ncc2Cl)c1` [TL6-144], the “activity remaining in the presence of the inhibitor: IKKb” value [4] was 100, the “activity remaining in the presence of the inhibitor: PKCa” value [5] was 81 and the “activity remaining in the presence of the inhibitor: RSK1” value [6] was 61. The “activity remaining in the presence of the inhibitor: PKD1” value [7] was 46, the “activity remaining in the presence of the inhibitor: MARK2” value [8] was 84 and the “activity remaining in the presence of the inhibitor: ABL” value [9] was 87. For the same compound, the “activity remaining in the presence of the inhibitor: CHK2” value [10] was 38, the “activity remaining in the presence of the inhibitor: MARK3” value [11] was 48 and the “inhibition of IL-4 induced STAT6 phosphorylation, JAK3 Cys905Ser knockin BMDMs” value ([1]; 10 μM inhibitor) was “did not inhibit”. For the same compound, the IC50 [1] was greater than 10000 nM, the “activity remaining in the presence of the inhibitor: DYRK2” value [12] was 92 and the “activity remaining in the presence of the inhibitor: PAK6” value [13] was 77. For the same compound, the “activity remaining in the presence of the inhibitor: CK2” value [14] was 103, the “activity remaining in the presence of the inhibitor: ULK1” value [15] was 65 and the “activity remaining in the presence of the inhibitor: ZAP70” value [16] was 86. For the same compound, the IC50 ([2]; ATP 25 μM) was […], the IC50 [3] was 550 nM and the “activity remaining in the presence of the inhibitor: PIM2” value [17] was 97. For the same compound, the “activity remaining in the presence of the inhibitor: SRPK1” value [18] was 91, the “activity remaining in the presence of the inhibitor: IRR” value [19] was 56 and the “activity remaining in the presence of the inhibitor: p38a MAPK” value [20] was 96. The “activity remaining in the presence of the inhibitor: PINK” value [21] was 107, the “activity remaining in the presence of the inhibitor: MAP4K3” value [22] was 83 and the “activity remaining in the presence of the inhibitor: CDK2-Cyclin A” value [23] was 87. The “activity remaining in the presence of the inhibitor: CDK9-Cyclin T1” value [24] was 95.
For `C=CC(=O)Nc1cccc(CNc2nc(Nc3ccc(N4CCOCC4)cc3)ncc2Cl)c1` [TL8-52], the “activity remaining in the presence of the inhibitor: IKKb” value [4] was 104, the “activity remaining in the presence of the inhibitor: PKCa” value [5] was 91 and the “activity remaining in the presence of the inhibitor: RSK1” value [6] was 60. The “activity remaining in the presence of the inhibitor: PKD1” value [7] was 86, the “activity remaining in the presence of the inhibitor: MARK2” value [8] was 37 and the “activity remaining in the presence of the inhibitor: ABL” value [9] was 89. For the same compound, the “activity remaining in the presence of the inhibitor: CHK2” value [10] was 75, the “activity remaining in the presence of the inhibitor: MARK3” value [11] was 21 and the IC50 [1] was 540 nM. For the same compound, the “activity remaining in the presence of the inhibitor: DYRK2” value [12] was 87, the “activity remaining in the presence of the inhibitor: PAK6” value [13] was 99 and the “activity remaining in the presence of the inhibitor: CK2” value [14] was 103. For the same compound, the “activity remaining in the presence of the inhibitor: ULK1” value [15] was 48, the “activity remaining in the presence of the inhibitor: ZAP70” value [16] was 77 and the IC50 ([2]; ATP 25 μM) was 320 nM. For the same compound, the IC50 [3] was 100 nM, the “activity remaining in the presence of the inhibitor: PIM2” value [17] was 100 and the “activity remaining in the presence of the inhibitor: SRPK1” value [18] was 97. For the same compound, the “activity remaining in the presence of the inhibitor: IRR” value [19] was 75, the “activity remaining in the presence of the inhibitor: p38a MAPK” value [20] was 119 and the “activity remaining in the presence of the inhibitor: PINK” value [21] was 110. The “activity remaining in the presence of the inhibitor: MAP4K3” value [22] was 55, the “activity remaining in the presence of the inhibitor: CDK2-Cyclin A” value [23] was 84 and the “activity remaining in the presence of the inhibitor: CDK9-Cyclin T1” value [24] was 80.
